The source made the active and inactive calls. The calls are words filed in the database; no cut-off is given here.
Columns and labels:
Type in all cases: functional, organism-based
Details in all cases: Trachea
Pseudomonas aeruginosa [1] = assay: Antimicrobial activity against Pseudomonas aeruginosa 65.38-4 tracheal isolates from mechanically ventilated tuberculosis patient
Pseudomonas aeruginosa [2] = assay: Antimicrobial activity against Pseudomonas aeruginosa 1B9 tracheal isolates from mechanically ventilated tuberculosis patient
Pseudomonas aeruginosa [3] = assay: Antimicrobial activity against Pseudomonas aeruginosa 1C9 tracheal isolates from mechanically ventilated tuberculosis patient
Pseudomonas aeruginosa [4] = assay: Antimicrobial activity against Pseudomonas aeruginosa 2A1 tracheal isolates from mechanically ventilated tuberculosis patient
Pseudomonas aeruginosa [5] = assay: Antimicrobial activity against Pseudomonas aeruginosa 2A5 tracheal isolates from mechanically ventilated tuberculosis patient
Pseudomonas aeruginosa [6] = assay: Antimicrobial activity against Pseudomonas aeruginosa 2B5 tracheal isolates from mechanically ventilated tuberculosis patient
Pseudomonas aeruginosa [7] = assay: Antimicrobial activity against Pseudomonas aeruginosa 2A6 tracheal isolates from mechanically ventilated tuberculosis patient
Pseudomonas aeruginosa [8] = assay: Antimicrobial activity against Pseudomonas aeruginosa 5H6 tracheal isolates from mechanically ventilated chronic respiratory insufficiency patient
Pseudomonas aeruginosa [9] = assay: Antimicrobial activity against Pseudomonas aeruginosa 65.68-4 tracheal isolates from mechanically ventilated tuberculosis patient
Pseudomonas aeruginosa [10] = assay: Antimicrobial activity against Pseudomonas aeruginosa 2A5 tracheal isolates from mechanically ventilated chronic respiratory insufficiency patient
Pseudomonas aeruginosa [11] = assay: Antimicrobial activity against Pseudomonas aeruginosa 15H5 tracheal isolates from mechanically ventilated chronic respiratory insufficiency patient
Pseudomonas aeruginosa [12] = assay: Antimicrobial activity against Pseudomonas aeruginosa 19B3 tracheal isolates from mechanically ventilated chronic respiratory insufficiency patient
Pseudomonas aeruginosa [13] = assay: Antimicrobial activity against Pseudomonas aeruginosa 19C5 tracheal isolates from mechanically ventilated chronic respiratory insufficiency patient
Pseudomonas aeruginosa [14] = assay: Antimicrobial activity against Pseudomonas aeruginosa 8C4 tracheal isolates from mechanically ventilated chronic respiratory insufficiency patient
Pseudomonas aeruginosa [15] = assay: Antimicrobial activity against Pseudomonas aeruginosa 9A3 tracheal isolates from mechanically ventilated chronic respiratory insufficiency patient
Pseudomonas aeruginosa [16] = assay: Antimicrobial activity against Pseudomonas aeruginosa 10A9 tracheal isolates from mechanically ventilated chronic respiratory insufficiency patient
Pseudomonas aeruginosa [17] = assay: Antimicrobial activity against Pseudomonas aeruginosa 29G6 tracheal isolates from mechanically ventilated chronic respiratory insufficiency patient
Pseudomonas aeruginosa [18] = assay: Antimicrobial activity against Pseudomonas aeruginosa 29G7 tracheal isolates from mechanically ventilated chronic respiratory insufficiency patient
Pseudomonas aeruginosa [19] = assay: Antimicrobial activity against Pseudomonas aeruginosa 29G8 tracheal isolates from mechanically ventilated chronic respiratory insufficiency patient
Pseudomonas aeruginosa [20] = assay: Antimicrobial activity against Pseudomonas aeruginosa 29H1 tracheal isolates from mechanically ventilated chronic respiratory insufficiency patient
Pseudomonas aeruginosa [21] = assay: Antimicrobial activity against Pseudomonas aeruginosa 24D1 tracheal isolates from mechanically ventilated chronic respiratory insufficiency patient
Pseudomonas aeruginosa [22] = assay: Antimicrobial activity against Pseudomonas aeruginosa 24D5 tracheal isolates from mechanically ventilated chronic respiratory insufficiency patient
Pseudomonas aeruginosa [23] = assay: Antimicrobial activity against Pseudomonas aeruginosa 24F4 tracheal isolates from mechanically ventilated chronic respiratory insufficiency patient
Pseudomonas aeruginosa [24] = assay: Antimicrobial activity against Pseudomonas aeruginosa 65.18-1 tracheal isolates from mechanically ventilated tuberculosis patient
Pseudomonas aeruginosa [25] = assay: Antimicrobial activity against Pseudomonas aeruginosa 65.18-2 tracheal isolates from mechanically ventilated tuberculosis patient
Pseudomonas aeruginosa [26] = assay: Antimicrobial activity against Pseudomonas aeruginosa 65.18-3 tracheal isolates from mechanically ventilated tuberculosis patient
Pseudomonas aeruginosa [27] = assay: Antimicrobial activity against Pseudomonas aeruginosa 65.18-4 tracheal isolates from mechanically ventilated tuberculosis patient
Pseudomonas aeruginosa [28] = assay: Antimicrobial activity against Pseudomonas aeruginosa IA5 tracheal isolates from mechanically ventilated tuberculosis patient
Pseudomonas aeruginosa [29] = assay: Antimicrobial activity against Pseudomonas aeruginosa IC7 tracheal isolates from mechanically ventilated tuberculosis patient
Pseudomonas aeruginosa [30] = assay: Antimicrobial activity against Pseudomonas aeruginosa 65.33-2 tracheal isolates from mechanically ventilated tuberculosis patient
Pseudomonas aeruginosa [31] = assay: Antimicrobial activity against Pseudomonas aeruginosa 65.33-3 tracheal isolates from mechanically ventilated tuberculosis patient
Pseudomonas aeruginosa [32] = assay: Antimicrobial activity against Pseudomonas aeruginosa 65.36-2 tracheal isolates from mechanically ventilated tuberculosis patient
Pseudomonas aeruginosa [33] = assay: Antimicrobial activity against Pseudomonas aeruginosa 65.38-2 tracheal isolates from mechanically ventilated tuberculosis patient
Pseudomonas aeruginosa [34] = assay: Antimicrobial activity against Pseudomonas aeruginosa 15G10 tracheal isolates from mechanically ventilated chronic respiratory insufficiency patient
Pseudomonas aeruginosa [35] = assay: Antimicrobial activity against Pseudomonas aeruginosa 13D3 tracheal isolates from mechanically ventilated chronic respiratory insufficiency patient
Pseudomonas aeruginosa [36] = assay: Antimicrobial activity against Pseudomonas aeruginosa 13D6 tracheal isolates from mechanically ventilated chronic respiratory insufficiency patient
Pseudomonas aeruginosa [37] = assay: Antimicrobial activity against Pseudomonas aeruginosa 16D2 tracheal isolates from mechanically ventilated chronic respiratory insufficiency patient
Pseudomonas aeruginosa [38] = assay: Antimicrobial activity against Pseudomonas aeruginosa 19B1 tracheal isolates from mechanically ventilated chronic respiratory insufficiency patient
Pseudomonas aeruginosa [39] = assay: Antimicrobial activity against Pseudomonas aeruginosa 19C2 tracheal isolates from mechanically ventilated chronic respiratory insufficiency patient
Pseudomonas aeruginosa [40] = assay: Antimicrobial activity against Pseudomonas aeruginosa 19C12 tracheal isolates from mechanically ventilated chronic respiratory insufficiency patient
Pseudomonas aeruginosa [41] = assay: Antimicrobial activity against Pseudomonas aeruginosa 19D10 tracheal isolates from mechanically ventilated chronic respiratory insufficiency patient
Pseudomonas aeruginosa [42] = assay: Antimicrobial activity against Pseudomonas aeruginosa 19E1 tracheal isolates from mechanically ventilated chronic respiratory insufficiency patient
Pseudomonas aeruginosa [43] = assay: Antimicrobial activity against Pseudomonas aeruginosa 19E12 tracheal isolates from mechanically ventilated chronic respiratory insufficiency patient
Pseudomonas aeruginosa [44] = assay: Antimicrobial activity against Pseudomonas aeruginosa 19F1 tracheal isolates from mechanically ventilated chronic respiratory insufficiency patient
Pseudomonas aeruginosa [45] = assay: Antimicrobial activity against Pseudomonas aeruginosa 19F2 tracheal isolates from mechanically ventilated chronic respiratory insufficiency patient
Pseudomonas aeruginosa [46] = assay: Antimicrobial activity against Pseudomonas aeruginosa 24E1 tracheal isolates from mechanically ventilated chronic respiratory insufficiency patient
Pseudomonas aeruginosa [47] = assay: Antimicrobial activity against Pseudomonas aeruginosa 24E2 tracheal isolates from mechanically ventilated chronic respiratory insufficiency patient
Pseudomonas aeruginosa [48] = assay: Antimicrobial activity against Pseudomonas aeruginosa 24E6 tracheal isolates from mechanically ventilated chronic respiratory insufficiency patient
Pseudomonas aeruginosa [49] = assay: Antimicrobial activity against Pseudomonas aeruginosa 23C5 tracheal isolates from mechanically ventilated chronic respiratory insufficiency patient

CCn1cc(C(=O)O)c(=O)c2cc(F)c(N3CCNCC3)cc21
Activity (Pseudomonas aeruginosa [1]): Active | Activity (Pseudomonas aeruginosa [2]): Active | Activity (Pseudomonas aeruginosa [3]): Active | Activity (Pseudomonas aeruginosa [4]): Active | Activity (Pseudomonas aeruginosa [5]): Active | Activity (Pseudomonas aeruginosa [6]): Active | Activity (Pseudomonas aeruginosa [7]): Active | Activity (Pseudomonas aeruginosa [8]): Active | Activity (Pseudomonas aeruginosa [9]): Active | Activity (Pseudomonas aeruginosa [10]): Active | Activity (Pseudomonas aeruginosa [11]): Active | Activity (Pseudomonas aeruginosa [12]): Active | Activity (Pseudomonas aeruginosa [13]): Active | Activity (Pseudomonas aeruginosa [14]): Active | Activity (Pseudomonas aeruginosa [15]): Active | Activity (Pseudomonas aeruginosa [16]): Active | Activity (Pseudomonas aeruginosa [17]): Active | Activity (Pseudomonas aeruginosa [18]): Active | Activity (Pseudomonas aeruginosa [19]): Active | Activity (Pseudomonas aeruginosa [20]): inactive | Activity (Pseudomonas aeruginosa [21]): Active | Activity (Pseudomonas aeruginosa [22]): inactive | Activity (Pseudomonas aeruginosa [23]): Active | Activity (Pseudomonas aeruginosa [24]): Active | Activity (Pseudomonas aeruginosa [25]): Active | Activity (Pseudomonas aeruginosa [26]): Active | Activity (Pseudomonas aeruginosa [27]): Active | Activity (Pseudomonas aeruginosa [28]): Active | Activity (Pseudomonas aeruginosa [29]): Active | Activity (Pseudomonas aeruginosa [30]): Active | Activity (Pseudomonas aeruginosa [31]): Active | Activity (Pseudomonas aeruginosa [32]): Active | Activity (Pseudomonas aeruginosa [33]): Active

C[C@@H](O)[C@H]1C(=O)N2C(C(=O)O)=C(SCCNC=N)C[C@H]12
Activity (Pseudomonas aeruginosa [2]): inactive | Activity (Pseudomonas aeruginosa [34]): Active | Activity (Pseudomonas aeruginosa [4]): inactive | Activity (Pseudomonas aeruginosa [5]): Active | Activity (Pseudomonas aeruginosa [6]): inactive | Activity (Pseudomonas aeruginosa [7]): inactive | Activity (Pseudomonas aeruginosa [8]): Active | Activity (Pseudomonas aeruginosa [9]): inactive | Activity (Pseudomonas aeruginosa [10]): Active | Activity (Pseudomonas aeruginosa [35]): Active | Activity (Pseudomonas aeruginosa [36]): Active | Activity (Pseudomonas aeruginosa [11]): Active | Activity (Pseudomonas aeruginosa [37]): Active | Activity (Pseudomonas aeruginosa [38]): Active | Activity (Pseudomonas aeruginosa [12]): Active | Activity (Pseudomonas aeruginosa [39]): Active | Activity (Pseudomonas aeruginosa [40]): Active | Activity (Pseudomonas aeruginosa [41]): Active | Activity (Pseudomonas aeruginosa [14]): Active | Activity (Pseudomonas aeruginosa [15]): Active | Activity (Pseudomonas aeruginosa [16]): Active | Activity (Pseudomonas aeruginosa [17]): Active | Activity (Pseudomonas aeruginosa [18]): Active | Activity (Pseudomonas aeruginosa [42]): Active | Activity (Pseudomonas aeruginosa [43]): Active | Antimicrobial activity (Pseudomonas aeruginosa [44]): Active | Activity (Pseudomonas aeruginosa [45]): Active | Activity (Pseudomonas aeruginosa [22]): Active | Activity (Pseudomonas aeruginosa [46]): Active | Activity (Pseudomonas aeruginosa [47]): Active | Activity (Pseudomonas aeruginosa [48]): Active | Activity (Pseudomonas aeruginosa [49]): Active | Activity (Pseudomonas aeruginosa [23]): Active | Activity (Pseudomonas aeruginosa [24]): Active | Activity (Pseudomonas aeruginosa [25]): Active | Activity (Pseudomonas aeruginosa [26]): inactive | Activity (Pseudomonas aeruginosa [27]): inactive | Activity (Pseudomonas aeruginosa [29]): inactive | Activity (Pseudomonas aeruginosa [30]): inactive | Activity (Pseudomonas aeruginosa [31]): inactive | Activity (Pseudomonas aeruginosa [32]): inactive | Activity (Pseudomonas aeruginosa [33]): inactive

From ChEMBL document CHEMBL1147101, “Development and persistence of antimicrobial resistance in Pseudomonas aeruginosa: a longitudinal observation in mechanically ventilated patients” (Antimicrob Agents Chemother, 2007)
